Measured values taken from paper PMC10682951, “Structure-function and rational design of a spider toxin Ssp1a at human voltage-gated sodium channel subtypes” (Frontiers in Pharmacology, 2023).
Bridge positions count the residues as written; N and C are the ends. Peptide text beside a SMILES is read from it.

Tests used:
Format in all cases: cell-based
hNaV1.2 = target: T1, hNaV1.2 (Homo sapiens, UniProt Q99250); test: Automated whole-cell patch-clamp (QPatch 16X), hNaV1.2; settings: for IC50: HEK293 cells expressing hNaV1.2 + β1 subunit, QPatch 16X, holding −80 mV, step to 0 mV, peptide incubated 2 min, 0.1% BSA, mean, SEM and n (2-7)
T1 construct: host or cells: HEK293
T1 sequence (Q07699 19-218): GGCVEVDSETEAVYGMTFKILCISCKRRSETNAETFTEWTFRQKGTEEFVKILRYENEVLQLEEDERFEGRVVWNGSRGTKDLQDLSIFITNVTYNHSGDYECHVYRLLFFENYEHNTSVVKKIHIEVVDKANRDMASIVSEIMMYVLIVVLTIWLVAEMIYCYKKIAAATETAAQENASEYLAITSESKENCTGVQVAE
T1 sequence (Q99250 whole entry): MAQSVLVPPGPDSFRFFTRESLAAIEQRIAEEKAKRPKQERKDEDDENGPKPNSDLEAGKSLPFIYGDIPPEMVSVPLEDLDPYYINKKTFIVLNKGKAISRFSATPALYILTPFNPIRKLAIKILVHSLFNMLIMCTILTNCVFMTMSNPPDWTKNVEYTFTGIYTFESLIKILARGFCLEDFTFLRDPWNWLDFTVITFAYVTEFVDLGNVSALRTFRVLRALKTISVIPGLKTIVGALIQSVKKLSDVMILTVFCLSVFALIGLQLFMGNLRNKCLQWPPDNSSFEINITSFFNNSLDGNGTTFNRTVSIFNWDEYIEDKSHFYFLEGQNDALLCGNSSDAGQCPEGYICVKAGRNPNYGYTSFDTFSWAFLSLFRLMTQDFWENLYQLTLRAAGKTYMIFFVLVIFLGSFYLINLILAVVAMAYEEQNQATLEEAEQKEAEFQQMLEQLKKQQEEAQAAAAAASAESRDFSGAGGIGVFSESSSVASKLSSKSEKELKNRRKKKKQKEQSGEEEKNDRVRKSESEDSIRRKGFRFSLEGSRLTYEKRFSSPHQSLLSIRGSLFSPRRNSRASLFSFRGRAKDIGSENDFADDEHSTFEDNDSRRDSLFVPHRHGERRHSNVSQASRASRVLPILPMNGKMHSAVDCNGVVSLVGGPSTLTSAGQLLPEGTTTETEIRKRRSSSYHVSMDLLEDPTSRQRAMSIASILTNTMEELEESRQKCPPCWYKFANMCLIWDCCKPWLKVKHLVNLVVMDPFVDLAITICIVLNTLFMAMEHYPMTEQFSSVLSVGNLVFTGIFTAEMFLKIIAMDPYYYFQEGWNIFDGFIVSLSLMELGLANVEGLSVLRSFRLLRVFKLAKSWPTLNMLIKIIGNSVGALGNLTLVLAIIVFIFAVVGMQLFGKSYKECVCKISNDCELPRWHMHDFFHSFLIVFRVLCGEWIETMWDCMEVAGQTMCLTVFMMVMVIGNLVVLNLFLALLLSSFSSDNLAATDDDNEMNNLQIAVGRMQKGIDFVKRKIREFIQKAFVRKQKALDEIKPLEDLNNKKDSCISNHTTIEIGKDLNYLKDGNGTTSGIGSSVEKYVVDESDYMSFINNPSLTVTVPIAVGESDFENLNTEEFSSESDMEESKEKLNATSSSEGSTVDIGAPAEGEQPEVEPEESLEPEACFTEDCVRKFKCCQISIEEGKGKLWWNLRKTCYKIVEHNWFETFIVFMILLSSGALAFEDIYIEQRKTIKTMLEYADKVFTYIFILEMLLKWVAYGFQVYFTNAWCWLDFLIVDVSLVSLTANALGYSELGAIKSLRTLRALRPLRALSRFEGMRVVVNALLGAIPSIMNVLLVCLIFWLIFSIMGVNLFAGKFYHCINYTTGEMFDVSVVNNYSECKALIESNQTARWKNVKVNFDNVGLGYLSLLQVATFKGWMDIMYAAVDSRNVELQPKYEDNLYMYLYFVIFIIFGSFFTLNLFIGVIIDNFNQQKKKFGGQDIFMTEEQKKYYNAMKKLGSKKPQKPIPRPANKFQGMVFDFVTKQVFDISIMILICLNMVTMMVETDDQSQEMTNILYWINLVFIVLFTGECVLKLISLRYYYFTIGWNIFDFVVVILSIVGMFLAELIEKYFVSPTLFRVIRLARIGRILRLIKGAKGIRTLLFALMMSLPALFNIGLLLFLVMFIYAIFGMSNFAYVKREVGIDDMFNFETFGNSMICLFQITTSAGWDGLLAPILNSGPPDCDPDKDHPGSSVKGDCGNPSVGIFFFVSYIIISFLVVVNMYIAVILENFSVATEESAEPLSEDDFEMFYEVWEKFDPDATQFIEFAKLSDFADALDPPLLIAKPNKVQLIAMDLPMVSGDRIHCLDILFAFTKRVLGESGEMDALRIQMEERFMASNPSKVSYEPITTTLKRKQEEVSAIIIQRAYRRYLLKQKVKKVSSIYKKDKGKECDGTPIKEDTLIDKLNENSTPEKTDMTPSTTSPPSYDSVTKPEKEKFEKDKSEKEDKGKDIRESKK
Procedure: (§1) Human embryonic kidney 293 (HEK293) cells stably expressing recombinant hNaV1.2, hNaV1.3 and hNaV1.7 and the β1 auxiliary subunit (Scottish Biomedical Drug Discovery, Glasgow, UK) were cultured in Minimal Essential medium (MEM) (Sigma-Aldrich, MO, United States) supplemented with 10% v/v FBS-New Zealand origin (Assay Matrix), 2 mM L-glutamine and selection antibiotics as per manufacturer’s recommendation. The HEK293 cells heterologously expressing mNaV1.7 and F813G-mNaV1.7 were generously provided by Prof Irina Vetter and were cultured in Minimal Essential medium (MEM) (Sigma-Aldrich, MO, United States) supplemented with 10% v/v FBS-New Zealand origin (Assay Matrix), 2 mM L-glutamine and hygromycin 100 μg/mL.
(§2) NaV channel currents from HEK293 cells stably expressing NaV subtypes and the β1 auxiliary subunit were recorded using an automated whole-cell patch clamp system QPatch 16X (Sophion Bioscience A/S, Ballerup, Denmark). As per the manufacturer’s guidelines, the cells were cultured for 48 h to achieve ∼80% confluency, detached using Detachin (Genlantis) and resuspended to 5 × 10^6 cells/mL in serum free media [CHO-cell SFM (Life Technologies), 25 mM HEPES and 100 U/mL penicillin/streptomycin]. The extracellular solution comprised (in mM) 1 CaCl2, 1 MgCl2, 5 HEPES, 3 KCl, 140 NaCl and 20 TEA-Cl, with the pH adjusted to 7.3 with NaOH. The intracellular solution comprised (in mM) 140 CsF, 1 EGTA, 5 CsOH, 10 HEPES and 10 NaCl, with the pH adjusted to 7.3 with CsOH. The osmolarity of both solutions were adjusted to 320 mOsm with sucrose. Compounds were prepared in extracellular solution containing 0.1% bovine serum albumin (Sigma-Aldrich). To obtain the dose-response curves, cells were maintained at a holding potential −80 mV and Na^+ currents were elicited by […] voltage steps to 0 mV from a −120 mV conditioning pulse applied for […]. Increasing concentrations of the peptide were incubated with the cells at the holding potential for 2 min before the voltage protocol was applied.
(§3) The experimental data were analysed using QPatch Assay software v5.6.4 and GraphPad Prism 7.0 using a four-parameter Hill equation [Y = Bottom + (Top—Bottom)/(1 + 10^(Log IC50—X)* Hillslope)] to fit concentration response curves by non-linear regression analysis and Student’s t-test. Data are presented as means ± standard error of mean (SEM) with number of independent experiments stated and p < 0.05 is considered statistically significant. Statistically insignificant shift in the activity is denoted by “little” while small but statistically significant shift in the activity is denoted by “slight” throughout the manuscript.

hNaV1.3 = target: T2, hNaV1.3 (Homo sapiens, UniProt Q9NY46); test: Automated whole-cell patch-clamp (QPatch 16X), hNaV1.3; settings: HEK293 cells expressing hNaV1.3 + β1 subunit; QPatch 16X; holding −80 mV, step to 0 mV; peptide incubated 2 min; 0.1% BSA; mean, SEM and n (3-12)
T2 construct: host or cells: HEK293
T2 sequence (Q9NY46 whole entry): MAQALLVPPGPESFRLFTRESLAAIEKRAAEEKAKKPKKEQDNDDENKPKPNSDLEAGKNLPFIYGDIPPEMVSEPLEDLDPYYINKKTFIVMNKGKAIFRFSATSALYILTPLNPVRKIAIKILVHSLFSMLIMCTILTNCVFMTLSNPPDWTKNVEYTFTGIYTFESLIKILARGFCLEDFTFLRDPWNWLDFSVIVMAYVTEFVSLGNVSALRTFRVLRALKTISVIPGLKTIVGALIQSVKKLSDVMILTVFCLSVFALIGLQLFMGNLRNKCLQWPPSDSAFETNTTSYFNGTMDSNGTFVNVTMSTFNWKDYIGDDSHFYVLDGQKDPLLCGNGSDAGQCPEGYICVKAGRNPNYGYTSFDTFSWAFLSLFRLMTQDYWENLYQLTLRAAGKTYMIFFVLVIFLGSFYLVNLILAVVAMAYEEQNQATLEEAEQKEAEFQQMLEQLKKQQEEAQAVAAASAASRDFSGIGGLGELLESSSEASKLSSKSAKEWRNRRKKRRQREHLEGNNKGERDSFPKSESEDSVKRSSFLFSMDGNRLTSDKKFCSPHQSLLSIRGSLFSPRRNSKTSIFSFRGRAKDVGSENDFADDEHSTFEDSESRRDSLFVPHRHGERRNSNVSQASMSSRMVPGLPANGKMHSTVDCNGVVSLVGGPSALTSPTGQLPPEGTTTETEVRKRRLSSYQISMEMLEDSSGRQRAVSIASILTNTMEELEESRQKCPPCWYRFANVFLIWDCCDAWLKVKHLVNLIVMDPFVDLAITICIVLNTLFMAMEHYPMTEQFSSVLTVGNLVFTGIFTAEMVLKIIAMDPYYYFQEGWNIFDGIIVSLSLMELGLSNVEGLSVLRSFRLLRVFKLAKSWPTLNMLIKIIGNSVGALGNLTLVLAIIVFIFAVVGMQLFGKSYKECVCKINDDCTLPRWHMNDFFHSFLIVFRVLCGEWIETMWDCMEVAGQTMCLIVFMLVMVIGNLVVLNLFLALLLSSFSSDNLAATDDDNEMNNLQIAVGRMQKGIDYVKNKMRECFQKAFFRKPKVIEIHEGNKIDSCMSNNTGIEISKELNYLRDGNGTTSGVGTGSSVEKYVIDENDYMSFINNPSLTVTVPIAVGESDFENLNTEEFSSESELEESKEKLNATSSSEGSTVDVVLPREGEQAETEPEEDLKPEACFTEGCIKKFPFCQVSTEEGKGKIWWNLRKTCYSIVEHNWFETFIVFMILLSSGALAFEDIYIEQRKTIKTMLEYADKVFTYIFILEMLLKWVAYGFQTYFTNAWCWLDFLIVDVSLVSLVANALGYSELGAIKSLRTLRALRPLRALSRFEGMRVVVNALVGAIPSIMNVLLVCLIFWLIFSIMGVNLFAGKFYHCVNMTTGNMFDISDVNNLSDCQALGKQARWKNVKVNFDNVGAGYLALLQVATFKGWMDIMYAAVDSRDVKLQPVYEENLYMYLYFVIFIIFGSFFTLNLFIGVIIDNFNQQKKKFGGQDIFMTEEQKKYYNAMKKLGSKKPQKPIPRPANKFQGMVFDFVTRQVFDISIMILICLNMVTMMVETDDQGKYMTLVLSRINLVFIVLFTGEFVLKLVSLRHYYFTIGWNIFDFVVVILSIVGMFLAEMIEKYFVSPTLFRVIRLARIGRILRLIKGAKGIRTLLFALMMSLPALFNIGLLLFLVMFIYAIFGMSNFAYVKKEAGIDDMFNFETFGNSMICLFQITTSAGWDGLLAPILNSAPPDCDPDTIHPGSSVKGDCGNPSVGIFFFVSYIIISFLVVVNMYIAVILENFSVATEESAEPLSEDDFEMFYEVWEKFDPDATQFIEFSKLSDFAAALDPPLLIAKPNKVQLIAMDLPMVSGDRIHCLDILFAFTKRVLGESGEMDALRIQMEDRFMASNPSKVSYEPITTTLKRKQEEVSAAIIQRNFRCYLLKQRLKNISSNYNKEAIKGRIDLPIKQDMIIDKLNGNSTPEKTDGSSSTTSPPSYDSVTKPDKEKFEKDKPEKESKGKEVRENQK
T2 sequence (Q07699 19-218, further chain): as the sequence (Q07699 19-218) above
Procedure: as §1, §2, §3

hNaV1.7 = target: T3, hNaV1.7 (Homo sapiens, UniProt Q15858); test: Automated whole-cell patch-clamp (QPatch 16X), hNaV1.7; settings: for IC50: HEK293 cells expressing hNaV1.7 + β1 subunit, QPatch 16X, holding −80 mV, step to 0 mV, peptide incubated 2 min, 0.1% BSA, mean, SEM and n (3-9)
T3 construct: host or cells: HEK293
Procedure: as §1, §2, §3

Row | Compound | IC50 (hNaV1.2) [nM] | hNaV1.2-selectivity against hNaV1.3 (hNaV1.2; ratio of potencies hNaV1.3 / hNaV1.2) [fold] | hNaV1.2-selectivity against hNaV1.7 (hNaV1.2; ratio of potencies hNaV1.7 / hNaV1.2) [fold] | IC50 (hNaV1.3) [nM] | IC50 (hNaV1.7) [nM] | Loss (reduction) in potency vs rSsp1a at hNaV1.2 (hNaV1.2; relative to wild type rSsp1a) [fold] | Loss (reduction) in potency vs rSsp1a at hNaV1.7 (hNaV1.7; relative to wild type rSsp1a) [fold]
1 | CC(C)C[C@H](NC(=O)[C@H](CC(=O)O)NC(=O)[C@H](Cc1ccc(O)cc1)NC(=O)[C@H](CCCNC(=N)N)NC(=O)[C@@H]1CSSC[C@@H]2NC(=O)[C@H](CCCCN)NC(=O)[C@H](CC(=O)O)NC(=O)[C@H](CC(N)=O)NC(=O)[C@H](CC(N)=O)NC(=O)[C@@H]3CCCN3C(=O)[C@H](CC(=O)O)NC(=O)[C@@H]3CSSC[C@H](NC(=O)[C@H](C(C)C)NC(=O)[C@H](Cc4ccc(O)cc4)NC(=O)CNC(=O)[C@H](CCC(=O)O)NC(=O)[C@H](CSSC[C@H](NC(=O)[C@H](CC(=O)O)NC(=O)CN)C(=O)N[C@@H](CC(C)C)C(=O)NCC(=O)N[C@@H](Cc4c[nH]c5ccccc45)C(=O)N[C@@H](Cc4ccccc4)C(=O)N[C@@H](CO)C(=O)NCC(=O)N3)NC2=O)C(=O)N[C@@H](Cc2c[nH]cn2)C(=O)N[C@@H](Cc2c[nH]c3ccccc23)C(=O)N[C@@H](CCCCN)C(=O)N[C@@H](Cc2ccc(O)cc2)C(=O)N2CCC[C@H]2C(=O)N[C@@H](Cc2c[nH]c3ccccc23)C(=O)N1)C(=O)O [N14D] | 126 | 7 | > 24 | 900 | > 3000 | – | –
2 | CC(C)C[C@H](NC(=O)[C@H](CC(=O)O)NC(=O)[C@H](Cc1ccc(O)cc1)NC(=O)[C@H](CCCNC(=N)N)NC(=O)[C@@H]1CSSC[C@@H]2NC(=O)[C@H](CCCCN)NC(=O)[C@H](CC(N)=O)NC(=O)[C@H](CC(N)=O)NC(=O)[C@H](CC(N)=O)NC(=O)[C@@H]3CCCN3C(=O)[C@H](CC(=O)O)NC(=O)[C@@H]3CSSC[C@H](NC(=O)[C@H](C(C)C)NC(=O)[C@H](Cc4ccc(O)cc4)NC(=O)CNC(=O)[C@H](CCC(=O)O)NC(=O)[C@H](CSSC[C@H](NC(=O)[C@H](CC(=O)O)NC(=O)CN)C(=O)N[C@@H](CC(C)C)C(=O)NCC(=O)N[C@@H](Cc4c[nH]c5ccccc45)C(=O)N[C@@H](Cc4ccccc4)C(=O)N[C@@H](CO)C(=O)NCC(=O)N3)NC2=O)C(=O)N[C@@H](Cc2c[nH]cn2)C(=O)N[C@@H](Cc2c[nH]c3ccccc23)C(=O)N[C@@H](CCCCN)C(=O)N[C@@H](Cc2ccc(O)cc2)C(=O)N2CCC[C@H]2C(=O)N[C@@H](Cc2ccccc2)C(=O)N1)C(=O)O [W28F] | > 3000 | – | – | > 3000 | 544 | – | –
3 | CC(C)C[C@H](NC(=O)[C@H](CC(=O)O)NC(=O)[C@H](Cc1ccc(O)cc1)NC(=O)[C@H](CCCNC(=N)N)NC(=O)[C@@H]1CSSC[C@@H]2NC(=O)[C@H](CCCCN)NC(=O)[C@H](CC(N)=O)NC(=O)[C@H](CC(N)=O)NC(=O)[C@H](CC(N)=O)NC(=O)[C@@H]3CCCN3C(=O)[C@H](CC(=O)O)NC(=O)[C@@H]3CSSC[C@H](NC(=O)[C@H](C(C)C)NC(=O)[C@H](Cc4ccc(O)cc4)NC(=O)CNC(=O)[C@H](CCC(=O)O)NC(=O)[C@H](CSSC[C@H](NC(=O)[C@H](CC(=O)O)NC(=O)CN)C(=O)N[C@@H](CC(C)C)C(=O)NCC(=O)N[C@@H](C)C(=O)N[C@@H](Cc4ccccc4)C(=O)N[C@@H](CO)C(=O)NCC(=O)N3)NC2=O)C(=O)N[C@@H](Cc2c[nH]cn2)C(=O)N[C@@H](Cc2c[nH]c3ccccc23)C(=O)N[C@@H](CCCCN)C(=O)N[C@@H](Cc2ccc(O)cc2)C(=O)N2CCC[C@H]2C(=O)N[C@@H](Cc2c[nH]c3ccccc23)C(=O)N1)C(=O)O [W5A] (H-GDCLGAFSGCDPNNNKCCEGYVCHWKYPWCRYDL-OH; disulfide 3-18, 10-23, 17-30 (inferred); N-terminus and C-terminus assumed) | > 1000 | – | – | > 1000 | > 1000 | ≥ 10 | ≥ 10
4 | CC(C)C[C@H](NC(=O)[C@H](CC(=O)O)NC(=O)[C@@H](NC(=O)[C@H](CCCNC(=N)N)NC(=O)[C@@H]1CSSC[C@@H]2NC(=O)[C@H](CCCCN)NC(=O)[C@H](CC(N)=O)NC(=O)[C@H](CC(N)=O)NC(=O)[C@H](CC(N)=O)NC(=O)[C@@H]3CCCN3C(=O)[C@H](CC(=O)O)NC(=O)[C@@H]3CSSC[C@H](NC(=O)[C@H](C(C)C)NC(=O)[C@H](Cc4ccc(O)cc4)NC(=O)CNC(=O)[C@H](CCC(=O)O)NC(=O)[C@H](CSSC[C@H](NC(=O)[C@H](CC(=O)O)NC(=O)CN)C(=O)N[C@@H](CC(C)C)C(=O)NCC(=O)N[C@@H](Cc4c[nH]c5ccccc45)C(=O)N[C@@H](Cc4ccccc4)C(=O)N[C@@H](CO)C(=O)NCC(=O)N3)NC2=O)C(=O)N[C@@H](Cc2c[nH]cn2)C(=O)N[C@@H](Cc2c[nH]c3ccccc23)C(=O)N[C@@H](CCCCN)C(=O)N[C@@H](Cc2ccc(O)cc2)C(=O)N2CCC[C@H]2C(=O)N[C@@H](Cc2c[nH]c3ccccc23)C(=O)N1)[C@@H](C)O)C(=O)O [Y31T] | 874 | – | – | > 3000 | 545 | – | –
5 | CC(C)C[C@H](NC(=O)[C@H](CC(=O)O)NC(=O)[C@H](Cc1ccc(O)cc1)NC(=O)[C@H](CCCNC(=N)N)NC(=O)[C@@H]1CSSC[C@@H]2NC(=O)[C@H](CCCCN)NC(=O)[C@H](CC(N)=O)NC(=O)[C@H](CC(N)=O)NC(=O)[C@H](CC(N)=O)NC(=O)[C@@H]3CCCN3C(=O)[C@H](CC(=O)O)NC(=O)[C@@H]3CSSC[C@H](NC(=O)[C@H](C(C)C)NC(=O)[C@H](Cc4ccc(O)cc4)NC(=O)CNC(=O)[C@H](Cc4ccccc4)NC(=O)[C@H](CSSC[C@H](NC(=O)[C@H](CC(=O)O)NC(=O)CN)C(=O)N[C@@H](CC(C)C)C(=O)NCC(=O)N[C@@H](Cc4c[nH]c5ccccc45)C(=O)N[C@@H](Cc4ccccc4)C(=O)N[C@@H](CO)C(=O)NCC(=O)N3)NC2=O)C(=O)N[C@@H](Cc2c[nH]cn2)C(=O)N[C@@H](Cc2c[nH]c3ccccc23)C(=O)N[C@@H](CCCCN)C(=O)N[C@@H](Cc2ccc(O)cc2)C(=O)N2CCC[C@H]2C(=O)N[C@@H](Cc2c[nH]c3ccccc23)C(=O)N1)C(=O)O [E18F] | 232 | – | – | 395 | 171 | – | –
6 | CC(C)C[C@H](NC(=O)[C@H](CC(=O)O)NC(=O)[C@H](Cc1ccc(O)cc1)NC(=O)[C@H](CCCNC(=N)N)NC(=O)[C@@H]1CSSC[C@@H]2NC(=O)[C@H](CCCCN)NC(=O)[C@H](CC(N)=O)NC(=O)[C@H](CC(N)=O)NC(=O)[C@H](CC(N)=O)NC(=O)[C@@H]3CCCN3C(=O)[C@H](CC(=O)O)NC(=O)[C@@H]3CSSC[C@H](NC(=O)[C@H](C(C)C)NC(=O)[C@H](Cc4ccc(O)cc4)NC(=O)CNC(=O)[C@H](CCC(=O)O)NC(=O)[C@H](CSSC[C@H](NC(=O)[C@H](CC(=O)O)NC(=O)CN)C(=O)N[C@@H](CC(C)C)C(=O)N[C@@H](CCC(N)=O)C(=O)N[C@@H](Cc4c[nH]c5ccccc45)C(=O)N[C@@H](Cc4ccccc4)C(=O)N[C@@H](CO)C(=O)NCC(=O)N3)NC2=O)C(=O)N[C@@H](Cc2c[nH]cn2)C(=O)N[C@@H](Cc2c[nH]c3ccccc23)C(=O)N[C@@H](CCCCN)C(=O)N[C@@H](Cc2ccc(O)cc2)C(=O)N2CCC[C@H]2C(=O)N[C@@H](Cc2c[nH]c3ccccc23)C(=O)N1)C(=O)O [G4Q] | 503 | – | – | 999 | 606 | – | –
7 | CC(C)C[C@H](NC(=O)[C@H](CC(=O)O)NC(=O)[C@H](Cc1ccc(O)cc1)NC(=O)[C@H](CCCNC(=N)N)NC(=O)[C@@H]1CSSC[C@@H]2NC(=O)[C@H](CCCCN)NC(=O)[C@H](CC(N)=O)NC(=O)[C@H](CC(N)=O)NC(=O)[C@H](CC(N)=O)NC(=O)[C@@H]3CCCN3C(=O)[C@H](CC(=O)O)NC(=O)[C@@H]3CSSC[C@H](NC(=O)[C@H](C(C)C)NC(=O)[C@H](Cc4ccc(O)cc4)NC(=O)CNC(=O)[C@H](CCC(=O)O)NC(=O)[C@H](CSSC[C@H](NC(=O)[C@H](CC(=O)O)NC(=O)CN)C(=O)N[C@@H](CC(C)C)C(=O)NCC(=O)N[C@@H](Cc4c[nH]c5ccccc45)C(=O)N[C@@H](Cc4ccccc4)C(=O)N[C@@H](CO)C(=O)NCC(=O)N3)NC2=O)C(=O)N[C@@H](Cc2c[nH]cn2)C(=O)N[C@@H](CO)C(=O)N[C@@H](CCCCN)C(=O)N[C@@H](Cc2ccc(O)cc2)C(=O)N2CCC[C@H]2C(=O)N[C@@H](Cc2c[nH]c3ccccc23)C(=O)N1)C(=O)O [W24S] | 1460 | – | – | > 3000 | > 3000 | – | –
